Results as given in patent US9126999B2, “Tetrahydropyrazolopyrimidine compounds” (EISAI R&D MANAGEMENT CO., LTD., priority 2012, dated 2015).
Where “and” joins values, the source holds several entries; their conditions need not be identical. Equal values may be shown once. Read-outs that look alike come from different tables or passages of the source.

Experiments:
[1] = molecular target: T1, Mouse TLR7 (Mus musculus, UniProt P58681); test: Mouse spleen cell-based assay, R848 stimulus, IL-6 ELISA
T1 construct: endogenous in cells; host or cells: female BALB/c mice, in vivo
T1 sequence (P58681 27-1050): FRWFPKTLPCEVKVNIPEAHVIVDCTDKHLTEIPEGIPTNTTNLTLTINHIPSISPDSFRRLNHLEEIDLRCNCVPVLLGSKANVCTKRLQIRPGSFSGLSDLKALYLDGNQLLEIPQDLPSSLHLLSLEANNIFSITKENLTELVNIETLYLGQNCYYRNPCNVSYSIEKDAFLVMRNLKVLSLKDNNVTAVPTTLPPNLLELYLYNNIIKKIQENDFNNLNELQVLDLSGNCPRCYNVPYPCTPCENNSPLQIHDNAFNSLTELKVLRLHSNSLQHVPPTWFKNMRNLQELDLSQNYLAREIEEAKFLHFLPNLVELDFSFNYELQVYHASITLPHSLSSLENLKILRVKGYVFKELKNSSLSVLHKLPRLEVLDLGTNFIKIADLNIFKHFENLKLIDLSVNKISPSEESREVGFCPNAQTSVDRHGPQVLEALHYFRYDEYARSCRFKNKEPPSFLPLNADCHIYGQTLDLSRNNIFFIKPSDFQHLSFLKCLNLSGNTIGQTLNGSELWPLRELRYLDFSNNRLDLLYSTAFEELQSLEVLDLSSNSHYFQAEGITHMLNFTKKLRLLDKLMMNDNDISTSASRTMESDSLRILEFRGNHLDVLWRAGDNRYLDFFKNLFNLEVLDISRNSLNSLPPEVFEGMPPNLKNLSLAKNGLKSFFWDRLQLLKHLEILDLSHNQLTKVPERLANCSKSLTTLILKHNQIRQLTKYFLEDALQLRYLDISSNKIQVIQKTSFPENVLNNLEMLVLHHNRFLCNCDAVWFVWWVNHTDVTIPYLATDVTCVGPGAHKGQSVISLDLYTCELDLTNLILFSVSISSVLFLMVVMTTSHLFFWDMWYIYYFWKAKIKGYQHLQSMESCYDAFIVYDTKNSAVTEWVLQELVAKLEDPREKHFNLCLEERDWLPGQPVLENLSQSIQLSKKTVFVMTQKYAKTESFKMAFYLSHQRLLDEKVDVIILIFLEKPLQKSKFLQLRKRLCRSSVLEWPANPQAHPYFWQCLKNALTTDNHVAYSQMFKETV
Experimental: Spleens were harvested from female BALB/c mice (Jackson Labs, Bar Harbor, Me.) euthanized by CO2. A single cell suspension was obtained by passing spleens through a 40 μm nylon cell strainer. Cells were washed twice with 50 ml PBS (Mediatech, Inc., Manassas, Va.) and red blood cells were lysed in 5 ml RBC Lysis buffer (eBioscience, Inc., San Diego, Calif.) for 5 minutes at room temperature. Cells were washed twice more in PBS and finally resuspended in supplemented RPMI-1640 at 2.5×10^6 cells/ml. Cells were plated at 100 μl/well (2.5×10^5 cells/well) in 96-well tissue culture treated plates (Falcon). Serial dilutions of compounds solubilized in 100% DMSO were added in triplicate to cells to yield a final concentration of 0.1% DMSO. Cells were incubated with compound for 30 minutes at 37° C., 5% CO2 before adding 100 μl/well of 740 nM R848 (Resiquimod; GLSynthesis, Worcester, Mass.) in complete media for a final concentration of 370 nM R848. Cells were incubated for 20 hours at 37° C., 5% CO2. Culture supernatants were collected, and levels of IL-6 were assessed by standard ELISA procedure according to the manufacturer's recommended protocol (BD Biosciences, Inc., San Diego, Calif.).

[2] = molecular target: T1, Mouse TLR7; test: Short-term in vivo (STIV) assay: plasma IL-6 after s.c. R848
Experimental: Figure Legend: Female BALB/c mice were dosed by oral gavage with Vehicle alone (0.5% aqueous methyl-cellulose) or compound ER-892887 formulated in Vehicle at 100 mg/kg or 300 mg/kg. At 13 or 24 hours following oral dosing, mice were injected subcutaneously with 15 ug R848 to stimulate TLR7. Blood plasma was collected by cardiac puncture, and the IL-6 level at 1.5 hours after TLR7 stimulation was then assessed by standard ELISA procedure. Percent suppression indicated is relative to IL-6 induction following Vehicle control dosing. Statistical significance was determined by Mann-Whitney test.
To assess compound potency in vivo against mouse TLR7, a short-term in vivo (STIV) assay was utilized. Briefly, mice were orally dosed with compounds and at various time points afterwards were injected subcutaneously with agonist R848 to stimulate TLR7. The plasma IL-6 level following R848 stimulation was then measured by ELISA to assess compound potency and duration-of-action. […] Therefore, the activity of compounds in the STIV assay can be confidently attributed to their modulation of the TLR7 pathway. A single oral dose of ER-892887 at 300 mg/kg suppresses the R848/TLR7/IL-6 pathway in vivo by 80-90% for at least 24 hours (see FIG. 1).
Six to eight week old female BALB/c mice (Jackson Labs, Bar Harbor, Me.) were dosed by oral gavage in 200 ul volume with antagonist compounds formulated in 0.5% aqueous methyl-cellulose (Sigma, St. Louis, Mo.). At various time points afterwards, mice were injected subcutaneously (s.c.) in 100 ul volume with 15 ug R848 (Resiquimod; GLSynthesis, Worcester, Mass.) to stimulate TLR7. Blood plasma was collected by cardiac puncture, and levels of IL-6 at 1.5 hours after TLR7 stimulation were then assessed by standard ELISA procedure according to the manufacturer's recommended protocol (R&D Systems).

[3] = Mouse Splenocyte IL-6 Inhibition (R848 Ligand), read-out: Mouse Splenocyte IC50
[4] = time point 6 hr, dose 33 mg/kg oral
[5] = time point 6 hr, dose 100 mg/kg oral
[6] = time point 13 hr, dose 33 mg/kg oral
[7] = time point 13 hr, dose 100 mg/kg oral

Structure (SMILES) | IC50 [1, 3] | % Suppression vs. Vehicle ([2]; time point 19 hr, dose 100 mg/kg oral) | % Suppression vs. Vehicle ([2]; time point 19 hr, dose 300 mg/kg oral) | IC50 ([1]; Mu Spleen, ligand R848, analyte IL-6, read-out: IC50) | suppression of the R848/TLR7/IL-6 pathway in vivo ([2]; single oral dose 300 mg/kg) | duration of suppression of the R848/TLR7/IL-6 pathway in vivo ([2]; single oral dose 300 mg/kg, 80-90% suppression) | % Suppression vs. Vehicle [2, 4] | % Suppression vs. Vehicle [2, 5] | % Suppression vs. Vehicle ([2]; time point 13 hr, dose 11 mg/kg oral) | % Suppression vs. Vehicle [2, 6] | % Suppression vs. Vehicle [2, 7] | % Suppression vs. Vehicle ([2]; time point 13 hr, dose 300 mg/kg oral) | % Suppression vs. Vehicle ([2]; time point 24 hr, dose 33 mg/kg oral) | % Suppression vs. Vehicle ([2]; time point 24 hr, dose 100 mg/kg oral) | % Suppression vs. Vehicle ([2]; time point 24 hr, dose 300 mg/kg oral)
COc1ccc([C@@H]2C[C@H](C(F)(F)F)n3nc(-c4ccncc4)cc3N2)cc1OC [ER-885454] | 680 nM | 56% | 100% |  |  |  |  |  |  |  |  |  |  |  | 
COc1ccc([C@@H]2C[C@H](C(F)(F)F)n3nc(-c4ccc(C(=O)N5CCNCC5)cc4)cc3N2)cc1OC [ER-892887, (4-((5S,7R)-5-(3,4-dimethoxyphenyl)-7-(trifluoromethyl)-4,5,6,7-tetrahydropyrazolo[1,5-a]pyrimidin-2-yl)phenyl)(piperazin-1-yl)methanone] | 70 nM and 330 nM |  |  | 70 nM | 80-90% | at least 24 hours | 83% | 100% | 27% | 12% | 49% | 90% | 0% | 12% | 86%
Cc1nn(C)cc1[C@@H]1C[C@H](C(F)(F)F)n2nc(-c3ccc(NC(N)=O)cc3)cc2N1 [ER-894595] | 3110 nM |  |  |  |  |  | 0% | 57% |  | 0% | 0% |  |  |  | 
Cc1nn(C)cc1[C@H]1C[C@@H](C(F)(F)F)n2nc(-c3ccc(NC(N)=O)cc3)cc2N1 [ER-894596] | 3020 nM |  |  |  |  |  |  |  |  |  |  |  |  |  | 
